Data taken from patent US20240082392A1, “USE OF SYNTHETIC PEPTIDE FOR THE INDUCTION OF ANTITUMOR AND ANTIVIRAL IMMUNITY” (CENTRO DE INGENIERÍA GENÉTICA Y BIOTECNOLOGÍA, priority 2020, published 2024).
Where a SMILES comes first, the peptide text is derived from it. Bridges are numbered along the chain shown (N, C = ends).

Experiments:
[1] = tested on: 3LL-OVA cells; test: Cellular immune response, IFN-γ ELISPOT after inoculation of treated cells; format: in vivo, C57/BL6 mice; settings: 3LL-OVA cells treated with 40 μM peptide 3 hours, 5 μM CX4945 or 40 μM Tat 3 hours; lymph node cells after 5 days
[2] = tested on: L1210 cells; test: Tumor microenvironment in DBA/2 mice: serum cytokines and intratumoral cell populations; format: in vivo; settings: for modulation in cytokine levels (IL12p70, TNF-α, IL-6, IL-10): Tat 20 mg/kg intratumoral, DOX 10 mM intratumoral, CX4945 75 mg/kg oral twice a day, five days; for intratumoral Foxp3+ T cell levels: peptide 20 mg/kg, DOX 10 mM, Tat 20 mg/kg, CX4945 75 mg/kg oral
Procedure: To study whether the peptide identified as SEQ ID NO: 1 was capable of modulating the tumor microenvironment, female DBA/2 mice, 6-8 weeks old, and between 17-19 grams were inoculated with 0.5×10^6 L1210 cells, subcutaneously, into right flank (inguinal inoculation). Seven days after tumor challenge, 42 mice with palpable and non-measurable tumor were selected, which were random assigned to six groups of seven animals each. […] DOX (10 mM) and Tat peptide (20 mg/kg), were administered intratumorally, in a final volume of 50 μL, a daily inoculation for five days. The compound CX4945 (75 mg/kg) was administered in 25 mM NaH2PO4 buffer, twice a day, orally, for five days. Seven days after the end of the treatment, the mice were euthanized to obtain the tumors (day 18 of the procedure). Before sacrificing the mice, blood samples were obtained for the cytokines (IL-6, IL-10, IL-12p70, TNF-α) detection by ELISA. Tumors were cut into small pieces and transferred to gentleMACS tubes with RPMI medium, supplemented with an enzyme cocktail from Tumor Dissociation kit (Miltenyi Biotech, Germany). Tumor dissociation was performed using the gentleMACS™ Dissociator kit and a tumor dissociation kit (Miltenyi Biotech, Germany). The digested suspension was filtered, centrifuged and labeled with specific antibodies against CD8, CD4, Foxp3, CD11c, CD86 and CD40.

[3] = tested on: L1210 cells; test: Vaccination with treated tumor cells, then challenge with live cells; format: in vivo, DBA/2 mice; settings: vaccinated with cells treated with 5 μM CX4945 for 24 hours
Procedure: In order to explore whether the cell death induced by the peptide identified as SEQ ID NO: 1 had any immunomodulatory effect, a vaccination schedule was performed in mice with tumor cells previously treated with the peptide identified as SEQ ID NO: 1. For this purpose, 1×10^6 L1210 cells treated in vitro with 40 μM of the peptide identified as SEQ ID NO: 1, or time-matched untreated cells during 3 hours were subcutaneously injected in 0.1 mL in the inguinal area into right flank of 6-8 weeks female DBA/2 mice. After seven days, 1×10^6 live L1210 cells were inoculated on opposite flank, and tumor growth and volume were evaluated until day 45. Tumors were measured with Vernier calipers, three times a week, tumor volume was estimated using the formula: Volume=width^2 (mm)×length/2 (mm). As a positive control, cells treated with 15 μM DOX for 24 hours were used for vaccination. A group vaccinated with 5 μM CX4945-treated cells for 24 hours was also included. In total 4 groups were formed of 10 mice each group.

[4] = tested on: Lewis Lung Carcinoma cells; test: Anti-PDL1 therapy in a murine model of lung cancer; format: in vivo, C57/BL6 mice
Excerpt: Taking into account the results obtained in the in vitro test, it was decided to evaluate whether the use of the peptide identified as SEQ ID NO: 1 improved the antitumor efficacy of anti-PDL1 therapy in a murine model of lung cancer. For that, 2×10^5 Lewis Lung Carcinoma cells were subcutaneously implanted (day 0) in 6-8 weeks old C57/BL6 female mice with 17-19 grams of body weight. Nine days after the tumor challenge, 42 animals with 40 mm^3 tumors were randomized into six groups with seven mice each. CX4945 (75 mg/kg) was orally administered in 25 mM NaH2PO4 buffer twice daily. 40 mg/kg of the peptide identified as SEQ ID NO: 1 and 100 μg anti-PDL1 antibody (clone 10F.9G2, isotype rat IgG2b kappa) were intraperitoneally applied. Tumor volume and body weight were determined 3 times a week for 40 days. Tumor volume was measured and calculated as described in Example 7.

[5] = tested on: PDL1 in H460 cells; test: PDL1 levels by flow cytometry; format: cell-based; settings: 30 μM peptide, 5 μM CX4945 or 30 μM Tat peptide, 24 hours
Procedure: (§1) Immune checkpoints are currently an important target in cancer immunotherapy, due to their immunosuppressive role during the course of this disease. Taking this into account, effect of the peptide identified as SEQ ID NO: 1 on modulation of PDL1 levels in two non-small cell lung cancer cell lines: […], was evaluated. For that, 5×10^4 cells were seeded in 24-well plates. The day after, cells were treated with 30 μM peptide identified as SEQ ID NO: 1; 5 μM CX4945 or 30 μM Tat peptide, for 24 hours. After treatment, cells were collected, staining with an anti-PDL1 antibody and analyzed by flow cytometry.

[6] = tested on: PDL1 in A549 cells; test: PDL1 levels by flow cytometry; format: cell-based; settings: 30 μM peptide, 5 μM CX4945 or 30 μM Tat peptide, 24 hours
Procedure: as §1

[7] = tested on: HL-60 cells; test: Phagocytosis of treated tumor cells by M1 and M2 macrophages; format: cell-based; settings: peptide 40 μM and 10 μM 5 hours, CX4945 5 μM 24 hours, Tat 40 μM 5 hours
Procedure: (§2) Treatment with the peptide identified as SEQ ID NO: 1, as described in examples 2 and 3, is capable of increasing “eat me” signals and decreasing “don't eat me” signals. Therefore, it fostered to evaluate whether the treatment with the peptide identified as SEQ ID NO: 1 facilitate phagocytosis of tumor cells by macrophages, and whether this is performed by M1 or M2 macrophages. For that purpose, HL-60 and OCI-AML3 leukemia tumor cell lines were previously stained with 0.5 μM CFSE and treated with 10 or 40 μM of the peptide identified as SEQ ID NO: 1, for five hours, 5 μM CX4945 for 24 hours or 40 μM Tat during 5 hours. Subsequently, cells were washed and co-cultured with each type of M1 and M2 macrophages, at a 1:1 ratio for three hours. Different types of macrophages were obtained from PBMC of healthy donors by Ficoll™ gradient. Monocytes were purified by positive selection, using CD14 beads with an MS column (Miltenyi Biotech, Germany), obtaining 96% purity. Monocytes were seeded at 0.25×10^6 cells/mL/well, in 12-wells plates and were induced with 100 ng/mL of GM-CSF, for seven days, and with 50 ng/mL of IFN-γ for last 24 hours, to obtain M1 macrophages. M2 macrophages were induced with 50 ng/mL of M-CSF for seven days and 100 ng/mL of IL-10 for last 24 hours. […]

[8] = tested on: OCI-AML3 cells; test: as above; format: cell-based; settings: peptide 40 μM and 10 μM 5 hours, CX4945 5 μM 24 hours, Tat 40 μM 5 hours
Procedure: as §2

[9] = tested on: RagOT-I cells / dendritic cells matured with treated 3LL cells; test: In vitro activation of OT-I CD8+ T cells by dendritic cells, IFN-γ ELISA; format: cell-based, mouse; settings: versus negative control, CX4945 and Tat peptide
Procedure: Additionally, the ability of activating CD8+ T cells in vitro by these dendritic cells matured with peptide-treated 3LL cells was evaluated. For this purpose, dendritic cells previously co-incubated with tumor cells, under the conditions described above, were washed and loaded with the […] peptide from OVA, MHC class I restricted, at different concentrations (0, 10, 30 and 100 pg/mL) during three hours. After that time, they were washed again and co-incubated with RagOT-I cells in a 1:1 ratio for 48 hours. IFN-γ production was finally quantified by ELISA. RagOT-I cells co-incubated with dendritic cells previously incubated with untreated 3LL cells constituted the negative control of experiment.

[10] = tested on: K562 cells; test: NK cytotoxic activity, Cr51 release; format: cell-based; settings: 50 μM
Procedure: The release of danger signals such as HSP70 and CRT has been reported to be involved in increasing the susceptibility of tumor cells toward cytotoxic activity of NK cells. Therefore, the effect of the peptide identified as SEQ ID NO: 1 on the susceptibility of tumor cells toward NK cytotoxic activity was evaluated. To do that, the classic target cells to NK activity, K562 cells, were employed. Target cells were labeled with Cr^51 (approximate specific activity: 100 μCi/μg) by incubation for 70 minutes at 37° C. Subsequently, target cells were washed three times with RPMI medium supplemented with 2% FBS and seeded in 96-well plates, at a target:effector ratio of 1:25. On the other hand, NK cells were isolated from peripheral blood mononuclear cells (PBMC) of healthy donors, by negative selection, using magnetic beads (Miltenyi Biotec). Thus, CD56+CD3− NK cells were obtained with more than 96% purity. The peptide identified as SEQ ID NO: 1 was added to the co-culture at 12.5; 25 and 50 μM. After 4 hours of incubation, supernatant was collected for the measurement of Cr^51 release using a scintillation counter. The percentage of specific lysis was calculated as follows: […]
Target cells without coincubation with effector cells were employed as spontaneous lysis control. Target cells with the peptide identified as SEQ ID NO: 1 constitute the toxicity control of the peptide.

[11] = tested on: OCI-AML3 and HL-60 tumor cells; settings: read-out: IC50 dose

SMILES | response of IFN-γ-secreting effector cells (ELISPOT) against OVA and OVA class I peptide [1] | modulation in cytokine levels (IL12p70, TNF-α, IL-6, IL-10) [2] | intratumoral Foxp3+ T cell levels [2] | vaccine effect of treated cells [3] | tumor volume, combined with anti-PDL1 antibody ([4]; as alone, plus 100 μg anti-PDL1 antibody intraperitoneal, days 9, 12, 15, 18) | tumor progression (tumor volume), alone ([4]; peptide 40 mg/kg intraperitoneal or CX4945 75 mg/kg oral twice daily, days 9-13) | % PDL1+ cells [5] | IFM [5] | PDL1 expression ([5]; in words) | % PDL1+ cells [6] | IFM [6] | PDL1 expression ([6]; in words) | susceptibility to be phagocytosed by M1 macrophages [7] | susceptibility to be phagocytosed by M1 macrophages [8] | IFN-γ production by CD8+ OT-I cells [9] | toxicity to target cells [10] | IC50 [11]
O=C(O)c1ccc2c(c1)nc(Nc1cccc(Cl)c1)c1ccncc12 [CX4945] | not able to generate this type of response | not observed | not observed | did not induce any vaccine effect | not observed | not observed | 25.2% | 15.23 | Differences were not observed | 29.6% | 16.2 | Differences were not observed | not observed | not observed |  |  | 
COc1cccc2c1C(=O)c1c(O)c3c(c(O)c1C2=O)C[C@@](O)(C(=O)CO)C[C@@H]3O[C@H]1C[C@H](N)[C@H](O)[C@H](C)O1 [DOX, doxorubicin] |  | not observed | significant decrease |  |  |  |  |  |  |  |  |  |  |  | significantly higher |  | 
CSCC[C@@H]1NC(=O)[C@H](Cc2c[nH]c3ccccc23)NC(=O)[C@@H](NC(=O)[C@H](C)NC(=O)[C@H](CCC(N)=O)NC(=O)[C@@H]2CCCN2C(=O)[C@@H]2CCCN2C(=O)[C@H](CCCNC(=N)N)NC(=O)[C@H](CCCNC(=N)N)NC(=O)[C@H](CCCNC(=N)N)NC(=O)[C@H](CCC(N)=O)NC(=O)[C@H](CCCNC(=N)N)NC(=O)[C@H](CCCNC(=N)N)NC(=O)[C@H](CCCCN)NC(=O)[C@H](CCCCN)NC(=O)[C@H](CCCNC(=N)N)NC(=O)CN)CSSC[C@@H](C(=O)O)NC(=O)[C@H]([C@@H](C)O)NC(=O)CNC(=O)[C@H](CC(C)C)NC(=O)[C@H](Cc2c[nH]cn2)NC(=O)[C@H](CCCNC(=N)N)NC(=O)[C@@H]2CCCN2C(=O)[C@H](CO)NC1=O [peptide identified as SEQ ID NO: 1] (H-GRKKRRQRRRPPQACWMSPRHLGTC-OH; disulfide 15-25) |  |  |  |  |  |  |  |  |  |  |  |  |  |  |  | showed toxicity | 40 µM
